Measurements: patent US9464055B2, “Quinoline derivatives useful as CB-1 inverse agonists” (JANSSEN PHARMACEUTICA NV, priority 2014, dated 2016)

Columns and labels:
hCB1-CHO-K1 membranes = hCB1-CHO-K1 membranes (Homo sapiens, UniProt P21554); test: CB-1 membrane binding assay ([3H] CP 55,940 displacement)
Protocol: Into Greiner V bottom polypropylene plates, hCB1-CHO-K1 membranes (2 μg/well final concentration) in assay buffer (50 mM Tris-HCl pH 7.4, 5 mM MgCl2 and 0.5 mg/ml (0.05%) Ultra fatty acid free BSA) were dispensed. Membranes were purchased from Perkin Elmer. Test compounds were then added to each well and then [^3H] CP 55, 940 (0.4 nM final well concentration) in assay buffer (50 mM Tris-HCl pH 7.4, 5 mM MgCl2 and 0.5 mg/ml (0.05%) Ultra fatty acid free BSA) was added. Samples were mixed and incubated for 90 min at 30° C. in the Greiner V Bottom Polypropylene plate. After incubation, assay reagents were transferred to a blocked 384 well polypropylene filter plates. The binding reaction was stopped by filtration and washed seven times with ice cold rinse buffer. Filter plates were then dried overnight at room temperature. The next day, plate bottoms were sealed with plate tape and 15 μl MicroScint 20 was added to each well. Plates were incubated for 2 h and radioactivity was measured by Topcount.
Total Binding levels were achieved by combining membrane, DMSO, and [^3H]
Non-Specific Binding (NSB) levels were achieved by combining membrane, 10 μM final concentration WIN-55,212 (also known as (R)-(+)-[2,3-Dihydro-5-methyl-3[(4-morpholinyl)methyl]pyrrolo[1,2,3-de]-1,4-benzoxazinyl]-(1-naphthalenyl)methanone mesylate, Tocris Biosciences Cat#1038), and [^3H]
Non-specific binding (NSB=10 μM WIN-55,212+Membrane+[^3H] CP-55,940) was used as the negative control, while the Total Binding (TB=DMSO+Membrane+[^3H] CP-55,940) was used as the positive control.
IC50 data was calculated using raw CPM values. Curves were fitted individually from singlet 11 point dosing curves+1% DMSO Control. IC50 values were fit appropriately and calculated using the following equation:
Vmin, CPM at maximum inhibition; Vo, CPM at zero inhibition; IC50, inhibitor concentration at 50% inhibition; h, Hill coefficient.

hCB2-HEK293 membranes = target: T1, hCB2-HEK293 membranes (Homo sapiens, UniProt P34972); test: CB-2 membrane binding assay ([3H] CP 55,940 displacement); conditions: mean where tested more than once
T1 construct: expressed in transfected cells; host or cells: HEK293
T1 sequence (P34972 whole entry): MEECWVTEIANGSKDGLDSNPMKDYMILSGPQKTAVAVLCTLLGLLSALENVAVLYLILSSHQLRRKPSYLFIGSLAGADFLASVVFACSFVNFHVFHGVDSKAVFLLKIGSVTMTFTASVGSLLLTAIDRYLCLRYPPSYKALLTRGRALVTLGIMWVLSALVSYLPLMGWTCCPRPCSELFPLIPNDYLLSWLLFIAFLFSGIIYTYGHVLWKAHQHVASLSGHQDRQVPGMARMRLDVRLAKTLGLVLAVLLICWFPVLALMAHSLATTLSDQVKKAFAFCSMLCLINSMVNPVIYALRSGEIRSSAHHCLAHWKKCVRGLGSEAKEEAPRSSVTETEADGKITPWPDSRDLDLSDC

[1] = target: T2, Human CB1R (Cannabinoid receptor 1) (Homo sapiens, UniProt P21554); test: CB-1 in vitro cAMP (HTRF) functional assay; format: cell-based; conditions: mean where tested more than once
T2 construct: host or cells: HEK-293
T2 sequence (P21554 whole entry): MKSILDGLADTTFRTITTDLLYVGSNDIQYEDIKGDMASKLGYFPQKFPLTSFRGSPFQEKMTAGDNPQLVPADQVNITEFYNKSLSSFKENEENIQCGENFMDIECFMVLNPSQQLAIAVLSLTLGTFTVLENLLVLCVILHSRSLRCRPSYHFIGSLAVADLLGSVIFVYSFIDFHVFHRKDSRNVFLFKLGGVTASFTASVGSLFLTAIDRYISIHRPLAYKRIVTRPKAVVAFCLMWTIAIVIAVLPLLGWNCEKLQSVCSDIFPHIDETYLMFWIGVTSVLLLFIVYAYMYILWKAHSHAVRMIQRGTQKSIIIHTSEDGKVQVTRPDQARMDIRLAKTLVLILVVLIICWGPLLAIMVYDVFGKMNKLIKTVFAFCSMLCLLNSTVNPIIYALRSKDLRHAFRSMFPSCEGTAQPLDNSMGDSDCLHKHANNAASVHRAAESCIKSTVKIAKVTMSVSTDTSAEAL
From the text: (§1) CB1 and CB2 receptors are Gi-coupled GPCR. Activation of CB1 and CB2 receptors results in a decrease in cAMP production. An inverse agonist of the CB1 or CB2 receptor results in the opposite effect, an increase of cAMP production. The principle of this assay is based on HTRF® technology (Homogeneous Time-Resolved Fluorescence). The method is a competitive immunoassay between native cAMP produced by cells and the cAMP labeled with the fluorophore d2. The tracer binding is quantified by a Mab anti-cAMP labeled with Eu3+ TBP-NHS Cryptate (supplied as part of the assay kit). The specific signal (i.e. energy transfer) is inversely proportional to the concentration of cAMP in the standard or sample.
(§2) Human CB1R (Cannabinoid receptor 1) was stably transfected in HEK-293 cells (DiscoveRx, cat: 93-0200C1). Human CB2R (Cannabinoid receptor 2) was stably transfected in HEK-293 cells (DiscoveRx, cat: 93-0201C1). Cell cultures were maintained in media: DMEM (Invitrogen Cat#12430-054) supplemented with 10% HI FBS (Invitrogen Cat#16140-071), 1% L-glutamine (Invitrogen Cat#25030-081), 0.2 mg/ml Hygromycin B (Invitrogen Cat#10687-010), 600 μg/mL G418 (Invitrogen Cat#10131-035), and 1× Penn/Strep (Invitrogen 15140-122). After cell expansion, aliquots were cryo-stored in media containing 5% DMSO (Pierce Cat#20684).
(§3) One day prior to experiments media was warmed to 37° C. and the cryo-stored cells were thawed in a 37° C. water bath. The cells were then added to media (10× volume) and the mixture was centrifuged at 1000 RPM for 5 min. The supernate was removed and the cells were re-suspended in media. A sample of the cell suspension was evaluated on a Cedex XS automated cell counter (Innovatis Systems) to determine viable cells/ml. Additional media was added to the cells to achieve a final cell density of 4E5 cells/mL. The cells were then plated into 384 well PDL white solid bottom plates (Greiner, Cat#781945) at 20 μL per well using a Multidrop (Thermo Scientific). Cells were removed from Row P (location of cAMP standards). Two columns of cells were plated into a clear bottom 384 well PDL coated plate (Greiner, Cat#781944) to view confluence the day of the assay. The cell plates were lidded and stored for 15 minutes in a hood, then transferred to an incubator (37° C., 5% CO2, 95% humidity) overnight.
(§4) DMSO was added to all wells of 384 well V bottom polystyrene plate (Greiner, Cat#781280) except to columns 1 and 13, rows O and P and wells M13-M23 and N13-N23. Test compounds (60 μL, 10 mM) were added to Column 1 and 13 (A1 through N1 and A13 through L13). Test compounds were serially diluted 1/3 by transferring and mixing 20 μl sample with 40 μL DMSO.
(§5) DMSO (40 μL) was added to wells of 384 well V bottom polystyrene plate: O2 through O11, M14 through M23, N14 through N23, and O14 through O23. AM630 (also known as [6-iodo-2-methyl-1-[2-(4-morpholinyl)ethyl]-1H-indol-3-yl](4-methoxyphenyl)-methanone, Cayman Chemical, Cat#10006974) (60 μL, 10 mM) was added to O1; and 1-(2,4-dichlorophenyl)-7-[(4-fluorophenyl)methylene]-4,5,6,7-tetrahydro-N-1-piperidinyl-1H-indazole-3-carboxamide (60 μL, 10 mM) was added to N13. The control was serially diluted 1/3 by transferring and mixing 20 μl sample with 40 μL DMSO. This process resulted 11 doses per control, 10 mM to […].
(§6) Cells plated the day prior to the assay in clear bottom plates were viewed on an inverse microscope to ensure confluency in the range of 60-75%. […]

[2] = target: T3, Human CB2R (Cannabinoid receptor 2) (Homo sapiens, UniProt P34972); test: CB-2 in vitro cAMP (HTRF) functional assay; format: cell-based; conditions: mean where tested more than once
T3 construct: host or cells: HEK-293
T3 sequence (P34972 whole entry): as the sequence (P34972 whole entry) above
From the text: as §1, §2, §3, §4, §5, §6

Chain of hCB1-CHO-K1 membranes (P21554 whole entry): as the sequence (P21554 whole entry) above

SMILES | IC50 (hCB1-CHO-K1 membranes) [nM] | EC50 [2] [nM] | other results
O=c1cc(CCc2cccc(Cl)c2)c2cc(C(O)(c3ccc(Cl)cc3)c3nccs3)ccc2[nH]1 (stereo not shown) [Compound 8, 4-(3-chlorophenethyl)-6-((4-chlorophenyl)(hydroxy)(thiazol-2-yl)methyl)quinolin-2(1H)-one] | > 2500 |  | 
Cn1c(=O)cc(CCc2cccc(Cl)c2)c2cc(C(c3ccc(Cl)cc3)c3nccs3)ccc21 (stereo not shown) [Compound 9, 4-(3-chlorophenethyl)-6-((4-chlorophenyl)(thiazol-2-yl)methyl)-1-methylquinolin-2(1H)-one] | > 2500 |  | 
O=c1cc(CCc2cccc(Cl)c2)c2cc(C(c3ccc(Cl)cc3)c3nccs3)ccc2[nH]1 (stereo not shown) [Compound 11, 4-(3-chlorophenethyl)-6-((4-chlorophenyl)(thiazol-2-yl)methyl)quinolin-2(1H)-one] | 332 |  | 
O=c1cc(/C=C/c2cccc(F)c2)c2cc(C(c3ccc(Cl)cc3)c3ccsc3)ccc2[nH]1 (stereo not shown) [Compound 16, 6-[(4-Chlorophenyl)(thiophen-3-yl)methyl]-4-[(E)-2-(3-fluorophenyl)ethenyl]quinolin-2(1H)-one] | 22 |  | IC50 (hCB2-HEK293 membranes): > 5000 nM
O=c1cc(/C=C/c2ccc(C(F)(F)F)cc2)c2cc(C(c3ccc(Cl)cc3)c3cccs3)ccc2[nH]1 (stereo not shown) [Compound 19, 6-[(4-Chlorophenyl)(thiophen-2-yl)methyl]-4-{(E)-2-[4-(trifluoromethyl)phenyl]ethenyl} quinolin-2(1H)-one] | 15.1 |  | IC50 (hCB2-HEK293 membranes): > 5000 nM
O=c1cc(/C=C/c2ccccc2)c2cc(C(c3ccc(Cl)cc3)c3nccs3)ccc2[nH]1 (stereo not shown) [Compound 25, (E)-6-((4-chlorophenyl)(thiazol-2-yl)methyl)-4-styrylquinolin-2(1H)-one] | 34.6 |  | IC50 (hCB2-HEK293 membranes): > 5000 nM
O=C(O)c1ccc(Nc2cc(=O)[nH]c3ccc(C(c4ccc(Cl)cc4)c4ccc(Cl)cc4)cc23)cc1 [Compound 86, 4-({6-[Bis(4-chlorophenyl)methyl]-2-oxo-1,2-dihydroquinolin-4-yl}amino)benzoic acid] |  | > 10000 | EC50 [1]: > 10000 nM
O=c1cc(Nc2ccc(C(F)(F)F)cc2)c2cc(C(c3ccc(Cl)cc3)c3ccc(Cl)cc3)cc(Br)c2[nH]1 [Compound 93] |  | > 10000 | EC50 [1]: 15 nM
O=C(O)CCN1CCC(Nc2cc(=O)[nH]c3ccc(C(c4ccc(Cl)cc4)c4ccc(Cl)cc4)cc23)CC1 [Compound 115, 3-[4-({6-[Bis(4-chlorophenyl)methyl]-2-oxo-1,2-dihydroquinolin-4-yl}amino)piperidin-1-yl]propanoic acid] |  | > 10000 | EC50 [1]: > 10000 nM
O=C(c1ccc(Nc2cc(=O)[nH]c3ccc(C(c4ccc(Cl)cc4)c4ccc(Cl)cc4)cc23)cc1F)N1CCCC1 [Compound 138] |  | 750 | EC50 [1]: 227 nM
OC(c1ccc(Cl)cc1)(c1ccc(Cl)cc1)c1ccc2nccc(/C=C/c3ccccc3)c2c1 [Compound 501, (E)-bis(4-chlorophenyl)(4-styrylquinolin-6-yl)methanol] | 52.1 |  | 
Clc1ccc(C(c2ccc(Cl)cc2)c2ccc3nccc(/C=C/c4ccccc4)c3c2)cc1 [Compound 503, (E)-6-(bis(4-chlorophenyl)methyl)-4-styrylquinoline] | 4.1 |  | 
COc1ccc(C(O)(c2ccc3nccc(/C=C/c4ccccc4)c3c2)c2nccs2)cc1 (stereo not shown) [Compound 504, (E)-(4-methoxyphenyl)(4-styrylquinolin-6-yl)(thiazol-2-yl)methanol] | 1870 |  | 
OC(c1ccc(Cl)cc1)(c1ccc2nccc(/C=C/c3ccccc3)c2c1)c1cccs1 (stereo not shown) [Compound 506, (4-Chlorophenyl){4-[(E)-2-phenylethenyl]quinolin-6-yl}thiophen-2-ylmethanol] | 101 |  | 
OC(c1ccc(Cl)cc1)(c1ccsc1)c1ccc2nccc(/C=C/c3ccccc3)c2c1 (stereo not shown) [Compound 507, (4-Chlorophenyl){4-[(E)-2-phenylethenyl]quinolin-6-yl}thiophen-3-ylmethanol] | 223 |  | 
Clc1ccc(C(c2ccc3nccc(/C=C/c4ccccc4)c3c2)c2cccs2)cc1 (stereo not shown) [Compound 508, 6-[(4-Chlorophenyl)(thiophen-2-yl)methyl]-4-[(E)-2-phenylethenyl]quinoline] | 97.3 |  | 
Clc1ccc(C(c2ccc3nccc(/C=C/c4ccccc4)c3c2)c2nccs2)cc1 (stereo not shown) [Compound 511] | 55.1 |  | IC50 (hCB2-HEK293 membranes): > 5000 nM
CCOC(=O)COc1cc(C(c2ccc(Cl)cc2)c2ccc(Cl)cc2)cc2c(NC3CCN(S(=O)(=O)C(F)(F)F)CC3)ccnc12 [Compound 544] |  | 3400 | EC50 [1]: 126 nM
O=C(O)COc1cc(C(c2ccc(Cl)cc2)c2ccc(Cl)cc2)cc2c(NC3CCN(S(=O)(=O)C(F)(F)F)CC3)ccnc12 [Compound 545] |  |  | EC50 [1]: 4900 nM
O=c1cc(NC2CCN(S(=O)(=O)C(F)(F)F)CC2)c2cc(C(c3ccc(Cl)cc3)c3nccs3)ccc2[nH]1 (stereo not shown) [Compound #41, 6-((4-chlorophenyl)(thiazol-2-yl)methyl)-4-((1-((trifluoromethyl)sulfonyl)piperidin-4-yl)amino)quinolin-2(1H)-one] | 4.4 |  | IC50 (hCB2-HEK293 membranes): > 5000 nM
CCS(=O)(=O)N1CCC(Nc2cc(=O)[nH]c3ccc(C(c4ccc(Cl)cc4)c4ccc(Cl)cc4)cc23)CC1 [Compound #56, 6-(bis(4-chlorophenyl)methyl)-4-((1-(ethylsulfonyl)piperidin-4-yl)amino)quinolin-2(1H)-one] |  | > 10000 | 
O=c1cc(NC2CCN(c3ccccc3)CC2)c2cc(C(c3ccc(Cl)cc3)c3ccc(Cl)cc3)ccc2[nH]1 [Compound #60, 6-[bis(4-chlorophenyl)methyl]-4-[(1-phenylpiperidin-4-yl)amino]quinolin-2-ol] |  | > 10000 | 
O=c1cc(NCc2ccc(C(F)(F)F)nc2)c2cc(C(c3ccc(Cl)cc3)c3ccc(Cl)cc3)ccc2[nH]1 [Compound #70, 6-(bis(4-chlorophenyl)methyl)-4-(((6-(trifluoromethyl)pyridin-3-yl)methyl)amino)quinolin-2(1H)-one] |  | > 10000 | 
O=c1cc(NC2CCCCC2)c2cc(C(c3ccc(Cl)cc3)c3ccc(Cl)cc3)ccc2[nH]1 [Compound #71, 6-(bis(4-chlorophenyl)methyl)-4-(cyclohexylamino)quinolin-2(1H)-one] |  | > 10000 | 
O=c1cc(NC2CCN(CC(F)(F)F)CC2)c2cc(C(c3ccc(Cl)cc3)c3ccc(Cl)cc3)ccc2[nH]1 [Compound #77, 6-(bis(4-chlorophenyl)methyl)-4-((1-(2,2,2-trifluoroethyl)piperidin-4-yl)amino)quinolin-2(1H)-one] |  | > 10000 | 
O=c1cc(NC2CCN(S(=O)(=O)N3CCCC3)CC2)c2cc(C(c3ccc(Cl)cc3)c3ccc(Cl)cc3)ccc2[nH]1 [Compound #81, 6-(bis(4-chlorophenyl)methyl)-4-((1-(pyrrolidin-1-ylsulfonyl)piperidin-4-yl)amino)quinolin-2(1H)-one] |  | > 10000 | 
NC(=O)Cn1c(=O)cc(NC2CCN(S(=O)(=O)C(F)(F)F)CC2)c2cc(C(c3ccc(Cl)cc3)c3ccc(Cl)cc3)ccc21 [Compound #90, 2-(6-(bis(4-chlorophenyl)methyl)-2-oxo-4-((1-((trifluoromethyl)sulfonyl)piperidin-4-yl)amino)quinolin-1 (2H)-yl)acetamide] |  | > 10000 | 
